In experiment [1] the target is Tyrosine-protein kinase BTK (Homo sapiens, UniProt Q06187).
In experiment [2] the target is T1, Serine/threonine-protein kinase ICK (Homo sapiens, UniProt Q9UPZ9).
T1 sequence (Q9UPZ9 whole entry): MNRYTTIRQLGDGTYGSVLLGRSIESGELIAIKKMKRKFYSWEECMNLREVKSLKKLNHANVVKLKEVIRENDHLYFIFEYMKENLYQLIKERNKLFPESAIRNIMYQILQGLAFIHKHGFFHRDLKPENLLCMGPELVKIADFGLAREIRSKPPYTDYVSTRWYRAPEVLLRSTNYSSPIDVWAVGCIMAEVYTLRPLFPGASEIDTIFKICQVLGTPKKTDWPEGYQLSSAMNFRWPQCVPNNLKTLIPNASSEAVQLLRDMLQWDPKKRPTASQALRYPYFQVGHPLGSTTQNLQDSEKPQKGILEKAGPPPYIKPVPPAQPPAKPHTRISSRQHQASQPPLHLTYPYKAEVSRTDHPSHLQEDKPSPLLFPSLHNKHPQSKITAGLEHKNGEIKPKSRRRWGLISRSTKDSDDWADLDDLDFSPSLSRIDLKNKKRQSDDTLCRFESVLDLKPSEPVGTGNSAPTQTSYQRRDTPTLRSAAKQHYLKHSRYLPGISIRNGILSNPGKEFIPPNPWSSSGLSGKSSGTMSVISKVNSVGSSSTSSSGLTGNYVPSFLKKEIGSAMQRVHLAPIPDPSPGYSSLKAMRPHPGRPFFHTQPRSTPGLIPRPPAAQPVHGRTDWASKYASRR

The target of experiment [3] is Elongation factor Tu, mitochondrial (Homo sapiens, UniProt P49411).
For experiment [4], the target named is T2, Serine/threonine-protein kinase Nek2 (Homo sapiens, UniProt P51955).
T2 sequence (P51955 whole entry): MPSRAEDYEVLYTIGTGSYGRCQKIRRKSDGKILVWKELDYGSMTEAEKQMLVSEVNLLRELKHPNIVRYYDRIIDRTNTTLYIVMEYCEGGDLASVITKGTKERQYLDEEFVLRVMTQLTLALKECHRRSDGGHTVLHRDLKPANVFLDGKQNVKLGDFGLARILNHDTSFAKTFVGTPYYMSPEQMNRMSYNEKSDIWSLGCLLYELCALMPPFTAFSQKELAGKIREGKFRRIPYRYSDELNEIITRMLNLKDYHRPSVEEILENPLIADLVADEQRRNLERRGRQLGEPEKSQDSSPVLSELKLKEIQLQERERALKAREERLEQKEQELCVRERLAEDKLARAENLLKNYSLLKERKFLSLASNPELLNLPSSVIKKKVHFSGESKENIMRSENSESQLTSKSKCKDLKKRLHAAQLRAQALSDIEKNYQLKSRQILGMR

For another experiment, the target named is TGF-beta receptor type-2 (Homo sapiens, UniProt P37173).
TGF-beta receptor type-2, sequence (P37173 whole entry): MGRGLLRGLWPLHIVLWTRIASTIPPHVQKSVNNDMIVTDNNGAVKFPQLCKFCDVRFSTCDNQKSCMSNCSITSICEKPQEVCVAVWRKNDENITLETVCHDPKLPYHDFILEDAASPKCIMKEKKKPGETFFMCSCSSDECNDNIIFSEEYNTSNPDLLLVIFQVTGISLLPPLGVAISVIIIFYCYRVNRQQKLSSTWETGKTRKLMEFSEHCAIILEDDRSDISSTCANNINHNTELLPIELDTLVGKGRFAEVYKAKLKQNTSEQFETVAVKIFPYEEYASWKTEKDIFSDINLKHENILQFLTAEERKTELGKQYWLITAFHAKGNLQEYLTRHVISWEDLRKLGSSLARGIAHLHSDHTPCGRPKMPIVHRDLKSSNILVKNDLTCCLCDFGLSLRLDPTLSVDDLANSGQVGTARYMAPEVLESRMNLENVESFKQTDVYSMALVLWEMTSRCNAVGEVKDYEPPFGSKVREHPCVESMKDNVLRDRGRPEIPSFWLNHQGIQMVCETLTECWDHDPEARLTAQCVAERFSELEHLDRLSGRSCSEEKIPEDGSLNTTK
Experiment [5] has as its target T3, Cytochrome c1, heme protein, mitochondrial (Homo sapiens, UniProt P08574).
T3 sequence (P08574 whole entry): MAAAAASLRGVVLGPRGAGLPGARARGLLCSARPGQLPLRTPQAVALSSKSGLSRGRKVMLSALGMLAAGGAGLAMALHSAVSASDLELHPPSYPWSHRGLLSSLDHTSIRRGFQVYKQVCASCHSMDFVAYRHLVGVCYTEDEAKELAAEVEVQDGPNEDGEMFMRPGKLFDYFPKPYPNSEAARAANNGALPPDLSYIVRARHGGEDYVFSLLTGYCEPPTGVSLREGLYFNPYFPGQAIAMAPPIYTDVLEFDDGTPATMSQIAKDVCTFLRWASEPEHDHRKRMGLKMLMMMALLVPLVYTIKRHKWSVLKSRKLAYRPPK

Experiment [6] deals with Casein kinase I isoform alpha (Homo sapiens, UniProt P48729).
Casein kinase I isoform alpha, sequence (P48729 whole entry, canonical isoform): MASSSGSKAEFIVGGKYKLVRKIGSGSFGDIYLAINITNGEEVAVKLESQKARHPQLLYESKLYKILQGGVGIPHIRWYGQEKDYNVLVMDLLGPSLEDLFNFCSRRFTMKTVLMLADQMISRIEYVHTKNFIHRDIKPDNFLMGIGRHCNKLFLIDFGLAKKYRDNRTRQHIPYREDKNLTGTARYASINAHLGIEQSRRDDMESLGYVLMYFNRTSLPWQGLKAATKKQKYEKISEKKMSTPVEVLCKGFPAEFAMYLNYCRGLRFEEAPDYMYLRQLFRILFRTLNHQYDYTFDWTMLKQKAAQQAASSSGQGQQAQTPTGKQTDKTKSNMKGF
The target of experiment [7] is Myosin light chain kinase, smooth muscle (Homo sapiens, UniProt Q15746).
Myosin light chain kinase, smooth muscle, sequence (Q15746 whole entry): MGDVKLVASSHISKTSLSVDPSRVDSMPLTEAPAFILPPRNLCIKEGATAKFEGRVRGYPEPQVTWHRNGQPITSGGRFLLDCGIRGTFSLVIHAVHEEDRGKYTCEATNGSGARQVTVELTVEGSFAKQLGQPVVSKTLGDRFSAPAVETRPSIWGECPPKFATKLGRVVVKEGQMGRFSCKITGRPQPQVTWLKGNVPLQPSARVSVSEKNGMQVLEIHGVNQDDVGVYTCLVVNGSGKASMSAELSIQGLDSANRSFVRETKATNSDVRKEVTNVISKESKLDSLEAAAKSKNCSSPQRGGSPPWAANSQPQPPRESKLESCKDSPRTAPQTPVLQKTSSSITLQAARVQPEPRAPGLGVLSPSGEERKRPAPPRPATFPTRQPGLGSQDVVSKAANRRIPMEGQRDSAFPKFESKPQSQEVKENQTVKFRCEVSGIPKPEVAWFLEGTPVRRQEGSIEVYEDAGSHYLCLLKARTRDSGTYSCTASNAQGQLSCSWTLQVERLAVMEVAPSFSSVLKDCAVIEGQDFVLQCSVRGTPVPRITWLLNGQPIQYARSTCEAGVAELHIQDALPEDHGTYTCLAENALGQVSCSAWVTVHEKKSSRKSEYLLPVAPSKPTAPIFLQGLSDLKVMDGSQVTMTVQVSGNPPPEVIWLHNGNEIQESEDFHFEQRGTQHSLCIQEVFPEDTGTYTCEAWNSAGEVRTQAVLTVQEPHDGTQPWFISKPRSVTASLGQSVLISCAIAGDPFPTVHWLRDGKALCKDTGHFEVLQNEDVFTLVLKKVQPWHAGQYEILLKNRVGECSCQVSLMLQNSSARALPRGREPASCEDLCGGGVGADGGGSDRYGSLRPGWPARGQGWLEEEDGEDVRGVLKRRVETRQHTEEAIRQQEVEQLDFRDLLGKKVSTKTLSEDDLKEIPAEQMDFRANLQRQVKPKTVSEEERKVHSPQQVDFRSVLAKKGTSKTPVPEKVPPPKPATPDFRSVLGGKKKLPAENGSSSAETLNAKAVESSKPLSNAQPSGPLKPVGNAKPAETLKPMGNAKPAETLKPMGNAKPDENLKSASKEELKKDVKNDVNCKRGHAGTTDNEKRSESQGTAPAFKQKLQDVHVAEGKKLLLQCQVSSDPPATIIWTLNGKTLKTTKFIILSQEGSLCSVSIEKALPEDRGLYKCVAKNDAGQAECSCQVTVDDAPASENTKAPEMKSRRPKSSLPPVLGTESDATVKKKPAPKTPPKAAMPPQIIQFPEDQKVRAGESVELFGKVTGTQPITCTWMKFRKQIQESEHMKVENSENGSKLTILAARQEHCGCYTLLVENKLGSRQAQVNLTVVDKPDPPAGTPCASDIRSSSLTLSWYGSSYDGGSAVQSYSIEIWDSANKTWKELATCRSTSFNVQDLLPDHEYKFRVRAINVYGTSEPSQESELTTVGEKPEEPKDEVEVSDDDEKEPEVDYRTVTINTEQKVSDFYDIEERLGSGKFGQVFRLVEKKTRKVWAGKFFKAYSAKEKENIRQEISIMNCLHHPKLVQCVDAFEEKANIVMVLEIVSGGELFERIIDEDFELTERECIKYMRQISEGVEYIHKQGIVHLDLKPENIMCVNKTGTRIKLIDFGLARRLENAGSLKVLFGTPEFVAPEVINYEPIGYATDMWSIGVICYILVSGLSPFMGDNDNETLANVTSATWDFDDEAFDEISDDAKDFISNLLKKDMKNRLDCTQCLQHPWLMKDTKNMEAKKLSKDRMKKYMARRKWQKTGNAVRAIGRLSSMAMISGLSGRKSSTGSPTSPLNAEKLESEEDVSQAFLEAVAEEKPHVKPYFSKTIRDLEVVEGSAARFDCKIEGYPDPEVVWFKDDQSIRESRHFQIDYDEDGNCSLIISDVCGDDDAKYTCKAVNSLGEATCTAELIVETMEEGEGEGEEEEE
Experiment [8] concerns the target Receptor-interacting serine/threonine-protein kinase 2 (Homo sapiens, UniProt O43353).
Experiment [9] deals with AP2-associated protein kinase 1 (Homo sapiens, UniProt Q2M2I8).
AP2-associated protein kinase 1, sequence (Q2M2I8 whole entry): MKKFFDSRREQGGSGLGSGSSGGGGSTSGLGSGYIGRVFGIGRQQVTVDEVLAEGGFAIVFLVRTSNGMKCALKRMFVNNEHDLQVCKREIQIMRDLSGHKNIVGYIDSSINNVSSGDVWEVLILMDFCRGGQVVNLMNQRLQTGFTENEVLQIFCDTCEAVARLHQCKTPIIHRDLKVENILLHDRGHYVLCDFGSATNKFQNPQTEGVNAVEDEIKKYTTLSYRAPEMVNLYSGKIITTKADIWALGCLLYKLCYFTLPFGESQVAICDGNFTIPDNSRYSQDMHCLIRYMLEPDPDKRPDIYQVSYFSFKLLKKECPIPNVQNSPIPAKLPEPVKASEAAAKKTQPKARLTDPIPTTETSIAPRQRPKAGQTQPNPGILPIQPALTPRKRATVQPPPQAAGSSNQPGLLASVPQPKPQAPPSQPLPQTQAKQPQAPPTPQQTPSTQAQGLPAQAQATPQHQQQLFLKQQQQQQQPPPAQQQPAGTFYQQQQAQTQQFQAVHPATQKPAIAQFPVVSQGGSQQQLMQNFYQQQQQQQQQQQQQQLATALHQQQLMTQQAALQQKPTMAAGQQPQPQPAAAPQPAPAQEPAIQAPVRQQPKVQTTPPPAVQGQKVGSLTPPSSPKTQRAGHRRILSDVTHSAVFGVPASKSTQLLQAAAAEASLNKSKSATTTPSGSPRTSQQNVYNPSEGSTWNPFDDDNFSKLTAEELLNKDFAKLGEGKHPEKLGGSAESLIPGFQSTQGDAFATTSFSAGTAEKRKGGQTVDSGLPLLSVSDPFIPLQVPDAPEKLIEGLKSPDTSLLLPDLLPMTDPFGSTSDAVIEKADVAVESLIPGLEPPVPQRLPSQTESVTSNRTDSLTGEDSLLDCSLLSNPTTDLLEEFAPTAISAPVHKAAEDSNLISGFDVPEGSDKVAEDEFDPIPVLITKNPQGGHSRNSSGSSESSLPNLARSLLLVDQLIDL

Each structure is given as a SMILES string. The source made the active and inactive calls. Rule as the data show it, for most assays here: actives have a measured Kd and inactives only a lower limit. Bounds are passed on as bounds.
Also: in the data inactive means no Kd found up to 30 µM.

Receptor-interacting serine/threonine-protein kinase 2, sequence (O43353 whole entry): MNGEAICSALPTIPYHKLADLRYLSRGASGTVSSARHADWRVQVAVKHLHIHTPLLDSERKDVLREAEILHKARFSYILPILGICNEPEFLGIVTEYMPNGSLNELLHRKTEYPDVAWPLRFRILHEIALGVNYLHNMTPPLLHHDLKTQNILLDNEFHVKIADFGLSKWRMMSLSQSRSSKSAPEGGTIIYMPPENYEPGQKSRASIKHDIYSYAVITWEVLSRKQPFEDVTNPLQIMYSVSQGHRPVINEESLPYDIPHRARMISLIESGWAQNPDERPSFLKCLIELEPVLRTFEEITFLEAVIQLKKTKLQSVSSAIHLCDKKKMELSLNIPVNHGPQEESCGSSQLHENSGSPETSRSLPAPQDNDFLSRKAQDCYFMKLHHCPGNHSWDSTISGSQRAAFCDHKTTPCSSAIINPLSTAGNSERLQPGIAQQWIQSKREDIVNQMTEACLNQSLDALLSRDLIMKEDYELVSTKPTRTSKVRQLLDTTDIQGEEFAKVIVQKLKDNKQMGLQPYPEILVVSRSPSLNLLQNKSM
Tyrosine-protein kinase BTK, sequence (Q06187 whole entry): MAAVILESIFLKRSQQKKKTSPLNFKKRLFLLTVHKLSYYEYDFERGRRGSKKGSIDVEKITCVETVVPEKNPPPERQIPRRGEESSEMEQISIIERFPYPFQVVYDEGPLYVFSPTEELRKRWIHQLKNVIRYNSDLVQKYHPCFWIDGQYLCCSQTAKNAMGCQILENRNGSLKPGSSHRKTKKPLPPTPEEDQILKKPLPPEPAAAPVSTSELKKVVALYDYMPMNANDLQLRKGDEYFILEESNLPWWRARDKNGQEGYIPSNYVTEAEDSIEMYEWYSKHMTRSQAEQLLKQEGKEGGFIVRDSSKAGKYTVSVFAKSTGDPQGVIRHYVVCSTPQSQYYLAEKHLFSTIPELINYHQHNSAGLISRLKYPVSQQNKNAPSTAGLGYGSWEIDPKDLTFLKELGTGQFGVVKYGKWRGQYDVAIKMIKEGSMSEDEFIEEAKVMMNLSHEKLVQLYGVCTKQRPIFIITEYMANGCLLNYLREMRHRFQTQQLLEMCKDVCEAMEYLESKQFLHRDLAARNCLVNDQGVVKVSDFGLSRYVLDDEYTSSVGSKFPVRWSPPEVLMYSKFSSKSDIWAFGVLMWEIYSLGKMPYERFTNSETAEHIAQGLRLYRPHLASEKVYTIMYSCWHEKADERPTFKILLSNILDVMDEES

Take `CC(=O)c1cnc2ccc(-c3cc(Cl)c(O)c(Cl)c3)nc2c1N[C@H]1CC[C@H](CN(C)C)CC1`: the Kd in [1] was 0.361 µM (active); in experiment [2], > 30 µM (inactive); in experiment [3], > 30 µM (inactive); in experiment [4], > 30 µM (inactive); on TGF-beta receptor type-2, > 30 µM (inactive); in [5], > 30 µM (inactive). In addition, the results for the dissociation constant (Kd) in experiment [6], in experiment [7] and in [8] were 0.931 µM (active), > 30 µM (inactive) and 0.005 µM (active), respectively.

Regarding `C=CC(=O)N1CCC[C@H](n2c(=O)n(-c3ccc(Oc4ccccc4)cc3)c3c(N)ncnc32)C1`, the Kd in [1] was 0.004 µM (active); in experiment [9], > 30 µM (inactive); in experiment [2], > 30 µM (inactive); in experiment [3], > 30 µM (inactive); in experiment [4] it was > 30 µM (inactive); at TGF-beta receptor type-2, > 30 µM (inactive). In addition, the Kd in experiment [5] was > 30 µM (inactive); in [6], > 30 µM (inactive); in [7], > 30 µM (inactive); in [8] it was 0.007 µM.

For the compound `COCc1c(-c2ccc(NC(=O)Nc3cc(C(F)(F)F)ccc3F)c(F)c2)c2c(N)ncnn2c1CN1CCOCC1`, the Kd (in experiment [1]; in experiment [9]; in experiment [2]; in [3]; in experiment [4]; at TGF-beta receptor type-2) was > 30 µM (inactive) in each case. Besides, the Kd in experiment [5], in experiment [6], in experiment [7] and in [8] was > 30 µM (inactive) throughout.

In the case of `Cc1csc(-c2nnc(Nc3ccc(Oc4ncccc4-c4ccnc(N)n4)cc3)c3ccccc23)c1` [AMG-900], the Kd (in [1]; in experiment [9]; in experiment [2]; in [3]; in experiment [4]; at TGF-beta receptor type-2) was > 30 µM (inactive) each time. The Kd in experiment [5], in experiment [6], in [7] and in experiment [8] was > 30 µM (inactive) in each case.

As to `C=CC(=O)Nc1cc2c(Nc3ccc(F)c(Cl)c3)ncnc2cc1C#CC(C)(C)N1CCN(C)CC1` [AV-412 FREE BASE], the Kd was 0.345 µM (active) in [1]; > 30 µM (inactive) in experiment [9]; > 30 µM (inactive) in [2]; > 30 µM (inactive) in experiment [3]; > 30 µM (inactive) in experiment [4]; > 30 µM (inactive) at TGF-beta receptor type-2. Besides, the Kd in [5], in experiment [6], in [7] and in [8] was > 30 µM (inactive) throughout.

Consider `COc1cc([C@@H]2c3cc4c(cc3[C@H](O)[C@H]3COC(=O)[C@@H]23)OCO4)cc(OC)c1OC` [AXL-1717], for which the Kd (in [1]; in experiment [9]; in [2]; in [3]; in experiment [4]; on TGF-beta receptor type-2) was > 30 µM (inactive) throughout. Besides, the Kd in experiment [5], in [6], in experiment [7] and in [8] was > 30 µM (inactive) each time.

For `NC(=O)Nc1cc(-c2cccc(F)c2)sc1C(=O)N[C@H]1CCCNC1` [AZD-7762], the Kd in experiment [1] was 3.07 µM (active); in experiment [9], 0.073 µM (active); in [2] it was > 30 µM (inactive); in [3] it was > 30 µM (inactive); in experiment [4], > 30 µM (inactive); at TGF-beta receptor type-2, > 30 µM (inactive). Besides, the Kd in experiment [6], in experiment [7] and in experiment [8] was > 30 µM (inactive) each time.

As for `Cc1cc(C(=O)NOCCO)c(Nc2ccc(I)cc2F)n(C)c1=O` [AZD-8330], the Kd (in experiment [1]; in [9]; in experiment [2]; in experiment [3]; in experiment [4]; on TGF-beta receptor type-2) was > 30 µM (inactive) each time. For the same compound, the Kd in [5], in experiment [6], in [7] and in experiment [8] was > 30 µM (inactive) in each case.

Regarding `Cn1cnc2c(F)c(Nc3ccc(Br)cc3F)c(C(=O)NOCCO)cc21` [BINIMETINIB], the Kd (in [1]; in experiment [9]; in experiment [2]; in [3]; in [4]; at TGF-beta receptor type-2) was > 30 µM (inactive) in each case. The Kd in [5], in experiment [6], in experiment [7] and in [8] was > 30 µM (inactive) each time.

With `CCn1c(C(=O)N(C2CC2)C2CC2)cc2c3c(ncn3C)c(Nc3cc(C)n(C)n3)nc21` [BMS-911543], the Kd (in experiment [1]; in experiment [9]; in experiment [2]; in experiment [3]; in [4]; on TGF-beta receptor type-2) was > 30 µM (inactive) in each case. Besides, the Kd in experiment [5], in experiment [6], in experiment [7] and in experiment [8] was > 30 µM (inactive) throughout.

Regarding `COc1cc2ncnc(Oc3cccc(NC(=O)Nc4cc(C(C)(C)C(F)(F)F)on4)c3)c2cc1OC` [CEP-32496], the Kd (in [1]; in [9]; in [2]; in [3]; in [4]; at TGF-beta receptor type-2) was > 30 µM (inactive) in each case. Moreover, the Kd was > 30 µM (inactive) in experiment [5], > 30 µM (inactive) in [6], 2.68 µM (active) in [7] and 0.442 µM (active) in experiment [8].

For the compound `Cc1cc(Nc2ncc(Cl)c(Nc3ccccc3S(=O)(=O)C(C)C)n2)c(OC(C)C)cc1C1CCNCC1` [CERITINIB], the Kd (in experiment [1]; in [9]; in experiment [2]; in experiment [3]; in experiment [4]; on TGF-beta receptor type-2) was > 30 µM (inactive) in each case. Besides, the Kd in [5], in experiment [6], in [7] and in experiment [8] was > 30 µM (inactive) in each case.

On to `COc1c(OCCCN2CCOCC2)ccc2c1N=C(NC(=O)c1cnc(N)nc1)N1CCN=C21` [COPANLISIB], for which the Kd (in experiment [1]; in experiment [9]; in experiment [2]; in [3]; in experiment [4]; at TGF-beta receptor type-2) was > 30 µM (inactive) in each case. Moreover, the Kd in experiment [5], in experiment [6], in [7] and in [8] was > 30 µM (inactive) in each case.

As for `CNC(=O)c1cccc2cc(Oc3ccnc4cc(OCC5(N)CC5)c(OC)cc34)ccc12` [LUCITANIB], the Kd (in experiment [1]; in experiment [9]; in experiment [2]; in experiment [3]; in experiment [4]; at TGF-beta receptor type-2) was > 30 µM (inactive) each time. Besides, the values for the Kd in experiment [5], in [6] and in experiment [8] were > 30 µM (inactive), > 30 µM (inactive) and 0.199 µM (active), respectively.

These data come from ChEMBL document CHEMBL3991601, “The target landscape of clinical kinase drugs” (Science, 2017).
